Source: the supplement of paper PMC10307832

Columns and labels:
Assay in all cases: relative viability (nuclei count vs DMSO), 5 days (fraction); higher = more cells survive
Halofuginone + Lapatinib = compound: O=C(C[C@H]1NCCC[C@@H]1O)Cn1cnc2cc(Br)c(Cl)cc2c1=O (racemic) [Halofuginone] + CS(=O)(=O)CCNCc1ccc(-c2ccc3ncnc(Nc4ccc(OCc5cccc(F)c5)c(Cl)c4)c3c2)o1 [Lapatinib] (partner 2 µM)
In short: (§1)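 One day after seeding in 1536-well plates, lung cancer cell lines were dosed by pin tool. Dosing was either single-drug or a fixed anchor-drug dose plus five library-drug doses (not always all listed) in √10 steps. After 5 days, nuclei were stained in one fix-and-stain step and counted on 4× images, and relative viability is the nuclei count of treated wells over that of vehicle wells, given as the median of duplicate plates.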

Cediranib + Foretinib = compound: COc1cc2c(Oc3ccc4[nH]c(C)cc4c3F)ncnc2cc1OCCCN1CCCC1 [Cediranib] + COc1cc2c(Oc3ccc(NC(=O)C4(C(=O)Nc5ccc(F)cc5)CC4)cc3F)ccnc2cc1OCCCN1CCOCC1 [Foretinib] (partner 0.25 µM)
In short: as §1

Decitabine + Alpelisib = compound: Nc1ncn([C@H]2C[C@H](O)[C@@H](CO)O2)c(=O)n1 [Decitabine] + Cc1nc(NC(=O)N2CCC[C@H]2C(N)=O)sc1-c1ccnc(C(C)(C)C(F)(F)F)c1 [Alpelisib] (partner 2 µM)
In short: as §1

Decitabine + Pemetrexed = compound: Nc1ncn([C@H]2C[C@H](O)[C@@H](CO)O2)c(=O)n1 [Decitabine] + Nc1nc2[nH]cc(CCc3ccc(C(=O)N[C@@H](CCC(=O)O)C(=O)O)cc3)c2c(=O)[nH]1 [Pemetrexed] (partner 0.2 µM)
In short: as §1

Cell Line	relative viability (Halofuginone + Lapatinib; first compound 0.001 µM)	relative viability (Halofuginone + Lapatinib; first compound 0.003162 µM)	relative viability (Halofuginone + Lapatinib; first compound 0.01 µM)	relative viability (Halofuginone + Lapatinib; first compound 0.03162 µM)	relative viability (Halofuginone + Lapatinib; first compound 0.1 µM)	relative viability (Cediranib + Foretinib; first compound 0.1265 µM)	relative viability (Cediranib + Foretinib; first compound 0.4 µM)	relative viability (Cediranib + Foretinib; first compound 1.265 µM)	relative viability (Cediranib + Foretinib; first compound 4 µM)	relative viability (Decitabine + Alpelisib; first compound 0.04 µM)	relative viability (Decitabine + Alpelisib; first compound 0.1265 µM)	relative viability (Decitabine + Alpelisib; first compound 0.4 µM)	relative viability (Decitabine + Alpelisib; first compound 1.265 µM)	relative viability (Decitabine + Alpelisib; first compound 4 µM)	relative viability (Decitabine + Pemetrexed; first compound 0.04 µM)	relative viability (Decitabine + Pemetrexed; first compound 0.1265 µM)	relative viability (Decitabine + Pemetrexed; first compound 0.4 µM)	relative viability (Decitabine + Pemetrexed; first compound 1.265 µM)	relative viability (Decitabine + Pemetrexed; first compound 4 µM)	relative viability (Cediranib + Foretinib; first compound 0.04 µM)
NCI-H727	0.704	0.676	0.949	0.798	0.508	1.05	0.868	0.84	0.93	0.453	0.405	0.333	0.35	0.401	–	–	–	–	–	–
NCI-H358	0.56	0.432	0.376	0.282	0.232	0.809	0.677	0.616	0.763	0.747	0.519	0.383	0.266	0.238	0.152	0.168	0.129	0.131	0.161	0.712
NCI-H1437	0.835	0.91	0.721	0.755	0.465	1.22	1.24	1.25	1.32	0.787	0.679	0.464	0.246	0.215	0.318	0.276	0.295	0.235	0.214	1.34
NCI-H441	–	–	–	–	–	–	0.87	0.794	1.14	0.412	0.334	0.276	0.214	0.259	0.214	0.203	0.184	0.197	0.235	1.09
EMC-BAC-2	0.952	0.888	0.86	0.89	0.807	1.11	0.984	0.991	1.03	0.718	0.699	0.481	0.442	0.41	–	0.407	0.412	0.36	0.354	1.04
NCI-H647	1.14	1.07	1.04	1.02	0.533	1.25	1.03	1.27	1.3	0.971	0.858	0.632	0.201	0.254	0.168	0.149	0.12	0.13	0.112	1.14
CAL-12T	0.765	0.609	–	0.729	0.561	1.02	1.09	1.12	1.2	0.686	0.997	0.793	0.514	0.34	1.07	1.04	0.599	0.609	0.36	1.1
NCI-H1792	0.897	0.857	0.896	0.831	0.994	–	–	–	–	0.619	0.765	0.724	0.383	0.323	0.715	0.894	0.587	0.309	0.255	–
H3255	0.272	0.255	0.241	0.259	0.235	–	0.821	0.732	0.932	0.222	0.579	0.358	0.428	0.436	0.453	0.547	0.446	0.486	0.453	0.788
